Measurements taken from patent publication US7405240B2, “Substituted cyclopentanes or cyclopentanones as therapeutic agents” (Allergan, Inc., priority 2006, dated 2008).

Legend:
hEP2 [1] = target: T1, hEP2 (Homo sapiens, UniProt P43116); experiment: cAMP assay, hEP2; assay type: cell-based
hEP2 [2] = target: T1, hEP2; experiment: Competition binding, [3H]PGE2, human EP2 receptors; design: expressed in transfected cells; host or cells: HEK 293; conditions: [3H]PGE2, HEK 293 cells stably expressing human EP2; read-out: hEP2 Ki
Experimental: Competition binding experiments were performed in a medium containing Hank's balanced salt solution, Hepes 20 mM, pH 7.3, membranes (˜60 μg protein) or 2×10^5 cells from HEK 293 cells stably expressing human EP2 receptors, [^3H]PGE2 (10 nM) and various concentrations of test compounds in a total volume of 300 μl. Reaction mixtures were incubated at 23° C. for 60 min, and were filtered over Whatman GF/B filters under vacuum. Filters were washed three times with 5 ml ice-cold buffer containing 50 mM Tris/HCl (pH 7.3). Non-specific binding was estimated in the presence of excess unlabeled PGE2 (10 μM). Binding data fitted to the binding model for a single class of binding sites, using nonlinear regression analysis. IC50 values thus obtained were converted to Ki using the equation of Ki=(IC50/(1+[L]/KD) where [L] represents PGE2 concentration (10 nM) and KD the dissociation constant for [^3H]PGE2 at human EP2 receptors (40 nM).
(§1) HEK-293 cells stably expressing the human or feline FP receptor, or EP1, EP2, or EP4 receptors were washed with TME buffer, scraped from the bottom of the flasks, and homogenized for 30 sec using a Brinkman PT 10/35 polytron. TME buffer was added to achieve a final 40 ml volume in the centrifuge tubes (the composition of TME is 100 mM TRIS base, 20 mM MgCl2, […]; 10N HCl is added to achieve a pH of 7.4).
(§2) The cell homogenate was centrifuged at 19000 r.p.m. for 20 min at 4° C. using a Beckman Ti-60 rotor. The resultant pellet was resuspended in TME buffer to give a final 1 mg/ml protein concentration, as determined by Biorad assay. Radioligand binding competition assays vs. [3H-] 17-phenyl PGF2, (5 nM) were performed in a 100 μl volume for 60 min. Binding reactions were started by adding plasma membrane fraction. The reaction was terminated by the addition of 4 ml ice-cold TRIS-HCl buffer and rapid filtration through glass fiber GF/B filters using a Brandel cell harvester. The filters were washed 3 times with ice-cold buffer and oven dried for one hour.
(§3) [^3H-] PGE2 (specific activity 180 Ci mmol) was used as the radioligand for EP receptors. [^3H] 17-phenyl PGF2, was employed for FP receptor binding studies. Binding studies employing EP1, EP2, EP4 and FP receptors were performed in duplicate in at least three separate experiments. A […] assay volume was used. Incubations were for 60 min at 25° C. and were terminated by the addition of 4 ml of ice-cold 50 mM TRIS-HCl, followed by rapid filtration through Whatman GF/B filters and three additional 4 ml washes in a cell harvester (Brandel). Competition studies were performed using a final concentration of 5 nM [^3H]-PGE2, or 5 nM [^3H] 17-phenyl PGF2, and non-specific binding determined with 10^−5M of unlabeled PGE2, or 17-phenyl PGF2α, according to receptor subtype studied.

hEP4 [3] = target: T2, hEP4 (Homo sapiens, UniProt P35408); experiment: Radioligand binding, EP4 receptor; design: expressed in transfected cells; host or cells: HEK-293; conditions: [3H]PGE2, HEK-293 cells expressing EP4
T2 sequence (P35408 whole entry): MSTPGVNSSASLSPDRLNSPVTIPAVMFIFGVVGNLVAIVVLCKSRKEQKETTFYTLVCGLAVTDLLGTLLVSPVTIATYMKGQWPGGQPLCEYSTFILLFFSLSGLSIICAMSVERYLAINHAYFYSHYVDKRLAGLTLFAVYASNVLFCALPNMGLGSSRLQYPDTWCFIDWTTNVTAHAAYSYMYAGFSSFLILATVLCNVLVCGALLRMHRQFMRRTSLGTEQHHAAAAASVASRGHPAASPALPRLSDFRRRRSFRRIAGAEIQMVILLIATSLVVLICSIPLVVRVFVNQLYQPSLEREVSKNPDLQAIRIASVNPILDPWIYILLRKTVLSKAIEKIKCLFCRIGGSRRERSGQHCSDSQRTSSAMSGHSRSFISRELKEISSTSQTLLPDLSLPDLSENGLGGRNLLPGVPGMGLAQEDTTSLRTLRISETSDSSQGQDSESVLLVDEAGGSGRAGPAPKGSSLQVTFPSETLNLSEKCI
Experimental: as §1, §2, §3

hEP2 [4] = target: T1, hEP2; experiment: FLIPR calcium signal, hEP2; assay type: cell-based; design: expressed in transfected cells; host or cells: HEK-293(EBNA); conditions: HEK-293(EBNA) cells expressing hEP2/Gqs5
Experimental: (§4) Methods for FLIPR™ Studies
(§5) HEK-293(EBNA) cells, stably expressing one type or subtype of recombinant human prostaglandin receptors (prostaglandin receptors expressed: hDP/Gqs5; hEP1; hEP2/Gqs5; hEP3A/Gqi5; hEP4/Gqs5; hFP; hIP; hTP), were cultured in 100 mm culture dishes in high-glucose DMEM medium containing 10% fetal bovine serum, 2 mM 1-glutamine, 250 μg/ml geneticin (G418) and 200 μg/ml hygromycin B as selection markers, and 100 units/ml penicillin G, 100 μg/ml streptomycin and 0.25 μg/ml amphotericin B.
(§6) Cells were seeded at a density of 5×10^4 cells per well in Biocoat® Poly-D-lysine-coated black-wall, clear-bottom 96-well plates (Becton-Dickinson) and allowed to attach overnight in an incubator at 37° C. Cells were then washed two times with HBSS-HEPES buffer (Hanks Balanced Salt Solution without bicarbonate and phenol red, 20 mM HEPES, pH 7.4) using a Denley Cellwash plate washer (Labsystems). After 45 minutes of dye-loading in the dark, using the calcium-sensitive dye Fluo-4 AM at a final concentration of 2 μM, plates were washed four times with HBSS-HEPES buffer to remove excess dye leaving 100 μl in each well. Plates were re-equilibrated to 37° C. for a few minutes.
(§7) Cells were excited with an Argon laser at 488 nm, and emission was measured through a 510-570 nm bandwidth emission filter (FLIPR™, Molecular Devices, Sunnyvale, Calif.). Drug solution was added in a 50 μl volume to each well to give the desired final concentration. The peak increase in fluorescence intensity was recorded for each well. On each plate, four wells each served as negative (HBSS-HEPES buffer) and positive controls (standard agonists: BW245C (hDP); PGE2 (hEP1; hEP2/Gqs5; hEP3A/Gqi5; hEP4/Gqs5); PGF2α (hFP); carbacyclin (hIP); U-46619 (hTP), depending on receptor). The peak fluorescence change in each drug-containing well was then expressed relative to the controls.
(§8) Compounds were tested in a high-throughput (HTS) or concentration-response (CoRe) format. In the HTS format, forty-four compounds per plate were examined in duplicates at a concentration of 10^−5 M. To generate concentration-response curves, four compounds per plate were tested in duplicates in a concentration range between 10^−5 and 10^−11 M. The duplicate values were averaged. In either, HTS or CoRe format each compound was tested on at least 3 separate plates using cells from different passages to give an n≧3.

hEP4 [5] = target: T2, hEP4; experiment: FLIPR calcium signal, hEP4; assay type: cell-based; design: expressed in transfected cells; host or cells: HEK-293(EBNA); conditions: HEK-293(EBNA) cells expressing hEP4/Gqs5
Experimental: as §4, §5, §6, §7, §8

T1 sequence (P43116 whole entry): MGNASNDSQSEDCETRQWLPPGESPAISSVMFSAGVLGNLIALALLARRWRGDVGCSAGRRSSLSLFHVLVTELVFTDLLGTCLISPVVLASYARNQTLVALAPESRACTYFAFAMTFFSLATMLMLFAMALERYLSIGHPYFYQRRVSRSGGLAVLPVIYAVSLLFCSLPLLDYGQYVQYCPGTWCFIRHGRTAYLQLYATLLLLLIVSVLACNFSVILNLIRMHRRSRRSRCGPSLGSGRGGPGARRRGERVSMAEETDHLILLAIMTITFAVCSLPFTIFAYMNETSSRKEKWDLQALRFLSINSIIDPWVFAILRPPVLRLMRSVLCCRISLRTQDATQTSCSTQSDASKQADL

SMILES	EC50 (hEP2 [1])	Ki (hEP2 [2])	Ki (hEP4 [3])	EC50 (hEP2 [4])	EC50 (hEP4 [5])
CC(C)(C)c1cccc(OC[C@@H]2[C@@H](C/C=C\CCCC(=O)O)[C@H](Cl)C[C@H]2O)c1 [Example 27, (Z)-7-[(1R,2S,3R,5R)-2-(3-tert-Butyl-phenoxymethyl)-5-chloro-3-hydroxy-cyclopentyl]-hept-5-enoic acid]	0.054 µM	0.497 µM	0.908 µM	0.189 µM	16 µM
CC(C)c1cccc(OC[C@@H]2[C@@H](C/C=C\CCCC(=O)O)[C@H](Cl)C[C@H]2O)c1 [Example 26, (Z)-7-[(1R,2S,3R,5R)-5-Chloro-3-hydroxy-2-(3-isopropyl-phenoxymethyl)-cyclopentyl]-hept-5-enoic acid]	0.007 µM	0.151 µM	0.967 µM	0.041 µM	6.5 µM
O=C(O)CCCCCC[C@@H]1[C@@H](COc2cc(C(F)(F)F)cc(C(F)(F)F)c2)[C@H](O)C[C@H]1Cl [Example 16, (Z)-7-[(1R,2S,3R,5R)-2-(3,5-Bis-trifluoromethyl-phenoxymethyl)-5-chloro-3-hydroxy-cyclopentyl]-heptanoic acid]	0.04 µM	0.045 µM	4.11 µM	0.1 µM	13.1 µM
Cc1ccc(OC[C@@H]2[C@@H](C/C=C\CCCC(=O)O)[C@H](Cl)C[C@H]2O)cc1C [Example 37, (Z)-7-[(1R,2S,3R,5R)-5-Chloro-2-(3,4-dimethyl-phenoxymethyl)-3-hydroxy-cyclopentyl]-hept-5-enoic acid]	0.027 µM	0.05 µM	1.1 µM	0.618 µM	> 10 µM
O=C(O)CCCCCC[C@@H]1[C@@H](COc2cccc3ccccc23)[C@H](O)C[C@H]1Cl [Example 20, (Z)-7-[(1R,2S,3R,5R)-5-Chloro-3-hydroxy-2-(naphthalen-1-yloxymethyl)-cyclopentyl]-heptanoic acid]	0.028 µM	0.163 µM	0.351 µM	0.082 µM	2.74 µM
O=C(O)CCC/C=C\C[C@@H]1[C@@H](COc2cccc(OC(=O)c3ccccc3)c2)[C@H](O)C[C@H]1Cl [Example 29, 3-[(1S,2R,3R,5R)-2-((Z)-6-carboxy-hex-2-enyl)-3-chloro-5-hydroxy-cyclopentylmethoxy]-phenyl benzoate]	0.139 µM	0.568 µM	2.38 µM	1.58 µM	7.68 µM
O=C(O)CCC/C=C\C[C@@H]1[C@@H](COc2ccccc2Cl)[C@H](O)C[C@H]1Cl [Example 21, (Z)-7-[(1R,2S,3R,5R)-5-Chloro-2-(2-chloro-phenoxymethyl)-3-hydroxy-cyclopentyl]-hept-5-enoic acid]	0.037 µM	0.303 µM	5.01 µM	0.026 µM	0.449 µM

More lines, in order of falling EC50 (hEP2 [1]), values ahead:

EC50 (hEP2 [1])	Ki (hEP2 [2])	Ki (hEP4 [3])	EC50 (hEP2 [4])	EC50 (hEP4 [5])	SMILES
0.225 µM	4.12 µM	1.52 µM	9.49 µM	12.3 µM	O=C(O)CCC/C=C\C[C@@H]1[C@@H](COc2ccccc2CO)[C@H](O)C[C@H]1Cl [Example 55, (Z)-7-[(1R,2S,3R,5R)-5-Chloro-3-hydroxy-2-(2-hydroxymethyl-phenoxymethyl)-cyclopentyl]-hept-5-enoic acid]
0.001 µM	0.086 µM	1.44 µM	0.017 µM	6.97 µM	O=C(O)CCC/C=C\C[C@@H]1[C@@H](COc2cccc3c2CCCC3O)[C@H](O)C[C@H]1Cl (stereo partly drawn) [Example 60, (Z)-7-[(1R,2S,3R,5R)-5-Chloro-3-hydroxy-2-(5-hydroxy-5,6,7,8-tetrahydro-naphthalen-1-yloxymethyl)-cyclopentyl]-hept-5-enoic acid]
0.0007 µM	0.011 µM	0.281 µM	0.01 µM	> 10 µM	Cc1cc(OC[C@@H]2[C@@H](C/C=C\CCCC(=O)O)[C@H](Cl)C[C@H]2O)cc(C)c1Cl [Example 39, (Z)-7-[(1R,2S,3R,5R)-5-Chloro-2-(4-chloro-3,5-dimethyl-phenoxymethyl)-3-hydroxy-cyclopentyl]-hept-5-enoic acid]
